Measured values published in article PMC9663578, “A fluorogenic probe for predicting treatment response in non-small cell lung cancer with EGFR-activating mutations” (Nature Communications, 2022).
Where “and” joins values, the source holds several entries; their conditions need not be identical. Equal entries are not always repeated.

Key:
[1] = MTT cytotoxicity assay; format: cell-based; settings: human, A549 cells, EGFR wild-type, n=3
Experimental: The cytotoxicity of the tested compounds against selected cell lines was measured by 3-(4,5-dimethylthiazol-2-yl)-2,5-diphenl tetrazolium bromide (MTT) assay. Briefly, cells (3000 per well) were plated in 96-well plate for 24 h and 100 µL of medium with di fferent concentrations of the tested compounds was added to each well for 48 h. Then 20 μL of MTT (5 mg/mL, Sigma-Aldrich) was added and incubate at 37 ℃ for 4 h, resulting the formation of the formazan crystal. The formed formazan crystal was dissolved with 150 μL of DMSO after removing the medium. The absorbance of each well was measured at 570 nm wavelength. The inhibition rate was calculated by the formula: (OD control group - OD treated group)/OD control group ×100%. The experiments were repeated at least three times. The IC50 values were determined by plotting a log (inhibitor) vs. normalized response (Variable slope) dose-response curve generated using GraphPad Prism […]
Immunohistochemistry staining
The obtained tumor tissues were sectioned into about 3 µm thickness layers. The general protocol of immunohistochemistry (IHC) was applied for the experiment. Firstly, the tissue slices were deparaffinized in xylene before immersion in 100% ethanol, followed by antigen repair. […]

[2] = biological target: T1, EGFR 19del (Homo sapiens, UniProt P00533, DEL746-750); test: Fluorescence turn-on response / titration of HX103 with recombinant EGFR;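 on Fluorescence intensity at 570 nm: 100% is HX103 fluorescence with wild-type EGFR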;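 on Fluorescence response of HX103 to EGFR 19del: ratio I over I0 of probe intensity with versus without protein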; format: binding; settings: for Fluorescence intensity, DEL19: Fig. 2c; for Fluorescence response of HX103 to EGFR 19del: Supplementary Fig. 2f
T1 construct: purchased Thermo Fisher PV6179
Experimental: (§1) (d) Fluorescence spectra change of HX103 (5 µ M) with increasing concentration of EGFR L858R
(§2) (e) Fluorescence spectra change of HX103 (5 µ M ) with
(§3) increasing concentration of EGFR 19del (0 to 6 µM) in PBS buffer. (f) Titration curve of HX103
(§4) (5 µM) with increasing concentration of EGFRs (0 to 6 µM). The apparent binding affinity (Kd)
(§5) The fluorescence titration curve was fitted on one -
(§6) site specific binding model. I and I0 represent the intensities of HX103 at 570 nm in the presence
(§7) and absence of protein. Data represent average val ues ± SD, n = 3 independent experiments per
(§8) dissolved in dimethyl sulfoxide (DMSO) to obtain stock solutions (10 mM). The prepared stock
(§9) solution was diluted in sodium phosphate buffer (PBS, 1 M, pH=7.4) to obtain the desired final
(§10) concentration solution, containing 0.1% (v/v) DMSO as a cosolvent.
(§11) and emission fluorescence spectra of the solution before/after addition o f different concentration
(§12) Data analysis：The obtained fluorescence intensity at 570 nm (Excitation wavelength was 440
(§13) nm) in each sample was normalized by using the fluorescence intensity of HX103 in the presence
(§14) of EGFR. Specifically, the fluorescence intensity of HX103 in the presence of EGFR wild-type
(§15) was set at 100% to normalized that of the remaining samples.

[3] = tested on: Jurkat cells; test: FACS assay in cultured cells
Experimental: The FACS assay was performed according to the reported literatures[67],[68]. Briefly, the cultured cells were seeded on the petri dish and counted using Count star BioMed automated cell counter. Around 10^6 live-cells were collected and were pelleted (2000×g, 3 min), followed by washing with PBS (2x). Cells were then resuspended in PBS buffer containing 0.1% BSA (1 × 10^6 cells/mL). […] The cell suspension was resuspended in PBS and analyzed with a FACSVerse^TM flow cytometer (BD Biosciences, LSRFortessa). About 10,000 events per tube were analyzed and the mean fluorescence intensity was detected and analyzed.
(§16) For the FACS assay with EGFR antibody, around 10^6 live-cells were collected and washed with PBS (2x). The cells were fixed by 400 µL 4% paraformaldehyde for 15 min at room temperature, followed by permeabilization with 0.1% Triton X-100 for 10 min and blocking with 5% BSA for 30 min. […] The cells were then washed with 0.5% BSA/PBS (3x) and resuspended in 400 µL of 0.1% BSA/PBS. […] The resuspended cell suspension was then analyzed on a FACSVerseTM flow cytometer (BD Biosciences, LSRFortessa). Nonspecific fluorescence binding was omitted by Rabbit mAb IgG isotype control (#3900, CST, 1:100) and the corresponding mean fluorescence was subtracted from the signal measured with each primary antibody. About 10,000 events per tube were analyzed and the mean fluorescence intensity was detected and analyzed.
(§17) Subsequently, the treated cells were incubated for 30 min at 37 °C, followed by washing with PBS buffer three times. […] Finally, the co-stained cells were washed with 0.5% BSA/PBS for three times and resuspended in 400 µL of 0.1% BSA/PBS. The obtained cell suspension was ready for analysis. Nonspecific fluorescence binding was omitted by Rabbit mAb IgG isotype control (#3900, CST, 1:100) as described above.
(§18) Nonspecific fluorescence binding was omitted by Rabbit mAb IgG isotype control (#3900, CST, 1:100). […] After incubation for another 30 min at room temperature, the co-stained cells were washed with 0.5% BSA/PBS for three times and resuspended in 400 µL of 0.1% BSA/PBS. The obtained cell suspension was ready for analysis. Nonspecific fluorescence binding was omitted by Rabbit mAb IgG isotype control (#3900, CST, 1:100) as described above.
(§19) The cells were seeded on the petri dish and cultured at the normal condition with 10% FBS, and that was changed to serum-free condition for 24 h when the cells proliferated at ~80% confluence. […] Nonspecific fluorescence binding was omitted by Rabbit mAb IgG isotype control (#3900, CST, 1:100) as described above.

[4] = biological target: BSA (Bos taurus, UniProt P02769); test: Fluorescence spectra of HX103 with BSA (Fig. 2c); format: binding
[5] = MTT cytotoxicity assay; format: cell-based; settings: human, HeLa cells, EGFR wild-type, n=3
[6] = biological target: T2, EGFR L858R (Homo sapiens, UniProt P00533, L858R); test: Fluorescence turn-on response / titration of HX103 with recombinant EGFR;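 on Fluorescence intensity at 570 nm: 100% is HX103 fluorescence with wild-type EGFR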;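 on all read-outs here: fluorescence of the probe measured with recombinant EGFR L858R in PBS carrying 0.1% DMSO, excitation at 440 nm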; format: binding; settings: for Fluorescence intensity, L858R: Fig. 2c; for Fluorescence response of HX103 to EGFR L858R: Supplementary Fig. 2f
T2 construct: EGFR L858R (amino acids 668–1210, #PR7447A); purchased Thermo Fisher PR7447A
Experimental: as §1, §2, §3, §4, §5, §6, §7, §8, §9, §10, §11, §12, §13, §14, §15

[7] = biological target: T2, EGFR L858R; test: Kinase inhibition assay (fluorescent mobility-shift assay); format: biochemical; parameters: Kinase activity: unit not given here; settings: for Kinase activity: L858R, n=1-3
[8] = tested on: H1975 cells; test: FACS assay in cultured cells; settings: for HX103 dose-dependent signal (Supplementary Fig. 18): 20 µM = 100
Experimental: Briefly, the cultured cells were seeded on the petri dish and counted using Count star BioMed automated cell counter. Around 10^6 live-cells were collected and were pelleted (2000×g, 3 min), followed by washing with PBS (2x). Cells were then resuspended in PBS buffer containing 0.1% BSA (1 × 10^6 cells/mL). […] The cell suspension was resuspended in PBS and analyzed with a FACSVerse^TM flow cytometer (BD Biosciences, LSRFortessa). About 10,000 events per tube were analyzed and the mean fluorescence intensity was detected and analyzed.
as §16, §17, §18, §19

[9] = HX103 5 µM in PBS buffer (0.1% DMSO), 570 nm
[10] = HX103 5 µM, EGFR 0 to 6 µM in PBS, one-site specific binding model, read-out: apparent binding affinity (Kd)
[11] = HX103 5 µM, 30 min, replicates n=1-3

Chain of BSA (P02769 25-607): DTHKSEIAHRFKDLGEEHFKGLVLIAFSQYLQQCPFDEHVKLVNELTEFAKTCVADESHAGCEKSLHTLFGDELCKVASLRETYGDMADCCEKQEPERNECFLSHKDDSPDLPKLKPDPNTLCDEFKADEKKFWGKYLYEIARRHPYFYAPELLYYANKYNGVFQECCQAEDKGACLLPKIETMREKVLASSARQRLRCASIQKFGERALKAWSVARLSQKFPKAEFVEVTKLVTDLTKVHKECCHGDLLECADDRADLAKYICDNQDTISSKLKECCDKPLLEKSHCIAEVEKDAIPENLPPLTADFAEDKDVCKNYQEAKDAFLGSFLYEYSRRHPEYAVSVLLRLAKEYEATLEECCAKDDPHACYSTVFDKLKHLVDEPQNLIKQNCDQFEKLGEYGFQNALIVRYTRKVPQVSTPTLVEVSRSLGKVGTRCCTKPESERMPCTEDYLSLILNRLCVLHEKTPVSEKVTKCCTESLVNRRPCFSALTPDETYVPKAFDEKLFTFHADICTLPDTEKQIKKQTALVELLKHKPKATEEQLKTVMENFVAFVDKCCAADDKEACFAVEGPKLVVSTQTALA

- Fluorescence intensity, DEL19 ([2]; wavelength 666 nm): 6329.64
- Fluorescence intensity, DEL19 ([2]; wavelength 669 nm): 5943.64
- Fluorescence intensity, DEL19 ([2]; wavelength 671 nm): 5458.74
- Fluorescence intensity, DEL19 ([2]; wavelength 673 nm): 4903.02
- Fluorescence intensity, DEL19 ([2]; wavelength 676 nm): 4330.47
- Fluorescence intensity, DEL19 ([2]; wavelength 678 nm): 3796.5
- Fluorescence intensity, DEL19 ([2]; wavelength 681 nm): 3356.07
- Fluorescence intensity, DEL19 ([2]; wavelength 683 nm): 3030.49
- Fluorescence intensity, DEL19 ([2]; wavelength 686 nm): 2784.09
- Fluorescence intensity, DEL19 ([2]; wavelength 688 nm): 2575.72
- Fluorescence intensity, DEL19 ([2]; wavelength 690 nm): 2364.25
- Fluorescence intensity, DEL19 ([2]; wavelength 693 nm): 2121.24
- Fluorescence intensity, DEL19 ([2]; wavelength 695 nm): 1850.71
- Fluorescence intensity, DEL19 ([2]; wavelength 698 nm): 1561.85
- Fluorescence intensity, DEL19 ([2]; wavelength 700 nm): 1263.82
- Fluorescence intensity at 570 nm ([2]; Fig. 2d, HX103 with EGFR 19del, n=1-3): 101.138 and 103.905 and 84.1794
- fluorescence turn-on response [2, 9]: high fluorescence
- Kd [2, 10]: 1.1 ± 0.2 µM
- Fluorescence response of HX103 to EGFR 19del ([2]; EGFR 0.1 µM, n=1-3): 2.201 and 2.149 and 2.11
- Fluorescence response of HX103 to EGFR 19del ([2]; EGFR 1 µM, n=1-3): 5.519 and 5.544 and 5.826
- Fluorescence response of HX103 to EGFR 19del ([2]; EGFR 5 µM, n=1-3): 8.2406 and 9.498 and 10.3034
- Fluorescence response of HX103 to EGFR 19del ([2]; EGFR 6 µM, n=1-3): 10.0143 and 10.322 and 11.4127
- Fluorescence intensity, BSA ([4]; wavelength 666 nm): 1883.79
- Fluorescence intensity, BSA ([4]; wavelength 669 nm): 1770.88
- Fluorescence intensity, BSA ([4]; wavelength 671 nm): 1700.55
- Fluorescence intensity, BSA ([4]; wavelength 673 nm): 1676.53
- Fluorescence intensity, BSA ([4]; wavelength 676 nm): 1671.89
- Fluorescence intensity, BSA ([4]; wavelength 678 nm): 1658.01
- Fluorescence intensity, BSA ([4]; wavelength 681 nm): 1606.53
- Fluorescence intensity, BSA ([4]; wavelength 683 nm): 1507.19
- Fluorescence intensity, BSA ([4]; wavelength 686 nm): 1380.4
- Fluorescence intensity, BSA ([4]; wavelength 688 nm): 1249.52
- Fluorescence intensity, BSA ([4]; wavelength 690 nm): 1137.89
- Fluorescence intensity, BSA ([4]; wavelength 693 nm): 1060.59
- Fluorescence intensity, BSA ([4]; wavelength 695 nm): 1011.56
- Fluorescence intensity, BSA ([4]; wavelength 698 nm): 981.361
- Fluorescence intensity, BSA ([4]; wavelength 700 nm): 960.577
- Fluorescence intensity, L858R ([6]; wavelength 666 nm): 4655.85
- Fluorescence intensity, L858R ([6]; wavelength 669 nm): 4299.18
- Fluorescence intensity, L858R ([6]; wavelength 671 nm): 3977.08
- Fluorescence intensity, L858R ([6]; wavelength 673 nm): 3702.64
- Fluorescence intensity, L858R ([6]; wavelength 676 nm): 3456.05
- Fluorescence intensity, L858R ([6]; wavelength 678 nm): 3215.71
- Fluorescence intensity, L858R ([6]; wavelength 681 nm): 2960.24
- Fluorescence intensity, L858R ([6]; wavelength 683 nm): 2683.28
- Fluorescence intensity, L858R ([6]; wavelength 686 nm): 2403.9
- Fluorescence intensity, L858R ([6]; wavelength 688 nm): 2143.64
- Fluorescence intensity, L858R ([6]; wavelength 690 nm): 1924.01
- Fluorescence intensity, L858R ([6]; wavelength 693 nm): 1757.52
- Fluorescence intensity, L858R ([6]; wavelength 695 nm): 1633.62
- Fluorescence intensity, L858R ([6]; wavelength 698 nm): 1538.11
- Fluorescence intensity, L858R ([6]; wavelength 700 nm): 1456.78
- Fluorescence intensity at 570 nm ([6]; Fig. 2d, HX103 with EGFR L858R, n=1-3): 94.4744 and 115.569 and 99.2784
- fluorescence turn-on response [6, 9]: high fluorescence
- Kd [6, 10]: 0.8 ± 0.3 µM
- Fluorescence response of HX103 to EGFR L858R ([6]; EGFR 1 µM, n=1-3): 6.4875 and 6.559 and 3.424
- Fluorescence response of HX103 to EGFR L858R ([6]; EGFR 2 µM, n=1-3): 8.6 and 6.836 and 4.376
- Fluorescence response of HX103 to EGFR L858R ([6]; EGFR 5 µM, n=1-3): 8.998 and 10.1242 and 7.156
- Fluorescence response of HX103 to EGFR L858R ([6]; EGFR 6 µM, n=1-3, 0 at EGFR 0): 9.745 and 11.2537 and 8.24
- Kinase activity ([7]; Log [HX103 (M)] -5.5): 1.026 and 1.162 and 1.004
- Kinase activity ([7]; Log [HX103 (M)] -6): 0.499 and 0.9509 and 0.7157
- Kinase activity ([7]; Log [HX103 (M)] -7): 0.6308 and 0.9321 and 0.7802
- Kinase activity ([7]; Log [HX103 (M)] -7.5): 4.698 and 2.842 and 4.52
- Kinase activity ([7]; Log [HX103 (M)] -8): 12.69 and 17.65 and 16.97
- Kinase activity ([7]; Log [HX103 (M)] -8.5): 28.21 and 40.93 and 37.97
- Kinase activity ([7]; Log [HX103 (M)] -9): 37.52 and 69.85 and 65.69
- IC50 ([7]; n = 3): 0.0015 µM
Compound: COc1cc2c(Nc3ccc(F)c(Cl)c3)ncnc2cc1OCCCNc1ccc(S(=O)(=O)N(C)C)c2nonc12 [HX103]
- IC50 at 48 h [1]: 18 µM
- normalized MFI of HX103 labeling [3, 11]: 17.5966% and 26.6094% and 22.103%
- EGFR(+) HX103 (+) (%) ([3]; HX103 5 µM, replicates n=1-3): 0.1% and 0.22% and -0.02%
- EGFR(+) HX103 (+) (%) AVE ([3]; Jurkat, AVE of n=3): 0.1%
- HX103 (+) (%) AVE ([3]; Jurkat, AVE of n=3): 0.05667%
- EGFR(+) HX103 (+) (%) ([3]; Jurkat, replicates n=1-3): -0.02% and 0.1% and 0.22%
- HX103(+) (%) ([3]; Jurkat, replicates n=1-3): 0.07% and 0.01% and 0.09%
- IC50 at 48 h [5]: > 100 µM
- EGFR(+) HX103 (+) (%) AVE ([8]; H1975, AVE of n=3): 82.37%
- HX103 (+) (%) AVE ([8]; H1975, AVE of n=3): 87.9667%
- HX103 dose-dependent signal (Supplementary Fig. 18) ([8]; H1975, HX103 0.04 µM): 2.425 and 4.214 and 3.319
- HX103 dose-dependent signal (Supplementary Fig. 18) ([8]; H1975, HX103 0.37 µM): 11.9338 and 12.3486 and 12.1512
- HX103 dose-dependent signal (Supplementary Fig. 18) ([8]; H1975, HX103 1.1 µM): 36.5652 and 42.2419 and 39.4086
- HX103 dose-dependent signal (Supplementary Fig. 18) ([8]; H1975, HX103 3.3 µM): 51.8347 and 43.4647 and 47.0457
- HX103 dose-dependent signal (Supplementary Fig. 18) ([8]; H1975, HX103 10 µM): 81.1792 and 74.1549 and 77.687
- HX103 dose-dependent signal (Supplementary Fig. 18) ([8]; H1975, HX103 15 µM): 93.412 and 78.0323 and 85.7212
- HX103 dose-dependent signal (Supplementary Fig. 18) ([8]; H1975, HX103 20 µM): 100
- HX103 signal (Supplementary Fig. 7) ([8]; H1975, HX103 alone or with Gefitinib, replicates n=1-3): 118.617 and 81.9826 and 99.4
- EGFR(+) HX103 (+) (%) ([8]; H1975, replicates n=1-3): 74.3% and 85.37% and 87.44%
- HX103(+) (%) ([8]; H1975, replicates n=1-3): 98.62% and 87.52% and 77.76%
- normalized MFI of HX103 labeling [8, 11]: 81.9742% and 118.026% and 100%
- EGFR(+) HX103 (+) (%) ([8]; HX103 5 µM, replicates n=1-3): 85.37% and 87.44% and 74.3%
